Values of other authors, collected in US20260183709A1, “GAS PURIFICATION METHOD AND GAS PURIFIER” (priority 2022, published 2026).
Read-outs that look alike come from different tables or passages of the source.

Experiments:
poliovirus = settings: in water; ozone concentration 0.13 ppm; acting time 3 minutes
escherichia coli [1] = settings: in the 25° C. air; ozone concentration 0.05 ppm; acting time 30 minutes
fusarium oxysporum = settings: ozone concentration 15.5 ppm; acting time 20 minutes; killing rate cell shared with r37
aspergillus niger = settings: ozone concentration 1.5 ppm; acting time 1 minute; 'in water' printed on the line above
HAsAg = settings: in water; ozone concentration 13.6 ppm; acting time 30 minutes (cells shared with line above)
Vibrio cholerae = settings: phosphate buffer solution; ozone introduction; acting time 15 seconds
pseudomonas fluorescens = settings: phosphate buffer solution; ozone introduction; acting time 15 seconds
[2] = test system: human immunodeficiency virus (HIV); settings: in serum; ozone concentration 4 ppm
human rotavirus = settings: ozone concentration 0.25 ppm
penicillium = settings: in the air; acting time 30 minutes; no ozone concentration printed
penicillium citrinum = settings: ozone concentration 15.4 ppm; acting time 30 minutes; killing rate cell shared with r37
cladosporium herbarum = settings: ozone concentration 23 ppm; acting time 30 minutes; killing rate cell shared with r37
HBsAg = settings: in the air; ozone concentration 0.3 ppm; acting time 30 minutes
simian rotavirus = settings: ozone concentration 0.25 ppm
Influenza A virus = settings: ozone concentration 0.5 ppm; conditions and time not printed on the line (line above: in the air, 30 minutes)
penicillium nigricans = settings: ozone concentration 12.5 ppm; acting time 35 minutes; killing rate cell shared with r37
staphylococcus albus = settings: ozone concentration 10 ppm; acting time 3 minutes
F's dysentery bacillus = settings: phosphate buffer solution; ozone introduction; acting time 15 seconds
pseudomonas aeruginosa = settings: ozone concentration 0.08-0.6 ppm; acting time 30 minutes
aspergillus versicolor = settings: in the air; ozone concentration 9.6 ppm; acting time 100 minutes
[3] = test system: bacillus subtilis variant; settings: in the air; ozone concentration 2.5 mg/L; acting time 1 minute
mucor = settings: acting time 30 minutes; killing rate cell shared with penicillium line; no ozone concentration printed
[4] = test system: bacillus subtilis variant; settings: in water; ozone concentration 4.6 mg/L; acting time 3 minutes
staphylococcus aureus = settings: in the air; ozone concentration 9 ppm; acting time 60 minutes
[5] = test system: common bacteria such as Escherichia coli, streptococcus, Pseudomonas aeruginosa, Staphylococcus aureus, and toxic bacteria; settings: in 15 minutes in the ozone environment
escherichia coli phage = settings: ozone concentration 0.09-0.8 ppm; acting time 3 minutes
escherichia coli [6] = settings: 10° C.; ozone concentration 0.3 ppm; acting time 1 minute
Salmonella typhimurium = settings: phosphate buffer solution; ozone introduction; acting time 15 seconds

O=[O+][O-] [Ozone, ozone]
Killing rate (poliovirus): 100%
Killing rate (escherichia coli [1]): 100%
Killing rate (fusarium oxysporum): 100%
Killing rate (aspergillus niger): 100%
Killing rate (HAsAg): 100%
Killing rate (Vibrio cholerae): 100%
Killing rate (pseudomonas fluorescens): 100%
Killing rate (drop by log values in titer) [2]: drop by 6 log values in titer
sterilization rate faster than chlorine (bacteria; compared with chlorine): 600-3000 times
bactericidal ability higher than the ultraviolet rays (bacteria; compared with ultraviolet rays): 20%
sterilization rate faster in the water than chlorine (bacteria; in the water, compared with chlorine): 600 times
Killing rate (human rotavirus): 100%
Killing rate (penicillium): 93.8%
Killing rate (penicillium citrinum): 100%
Killing rate (cladosporium herbarum): 100%
Killing rate (HBsAg): 75%
Killing rate (simian rotavirus): 100%
Killing rate (Influenza A virus): 100%
Killing rate (penicillium nigricans): 100%
Killing rate (staphylococcus albus): 99.99%
Killing rate (F's dysentery bacillus): 100%
Killing rate (pseudomonas aeruginosa): 99.9%
Killing rate (aspergillus versicolor): 100%
Killing rate [3]: 100%
Killing rate (mucor): 93.8%
Killing rate [4]: 100%
Killing rate (staphylococcus aureus): 99.97%
sterilization rate [5]: above 99%
Killing rate (drop by log values) (escherichia coli phage): drop by 7 log log values
Killing rate (escherichia coli [6]): 100%
Killing rate (Salmonella typhimurium): 100%
